# Assay results taken from US20160122340A1, “HISTONE DEACETYLASE INHIBITORS BASED ON DERIVATIVES OF TRICYCLIC POLYHYDROACRIDINE AND ANALOGS POSSESSING FUSED SATURATED FIVE-AND-SEVEN-MEMBERED RINGS” (QUIMATRYX, S.L., priority 2013, published 2016).
# Molecular target: T1, Human HDAC7 (Homo sapiens, UniProt Q8WUI4)
# T1 construct: Amino acids 518-end with N-terminal GST tag, MW=78 kDa; GST (N); purchased BioMol, Hamburg, Germany; host or cells: baculovirus expression system
# T1 sequence (Q8WUI4 518-952 limits assumed): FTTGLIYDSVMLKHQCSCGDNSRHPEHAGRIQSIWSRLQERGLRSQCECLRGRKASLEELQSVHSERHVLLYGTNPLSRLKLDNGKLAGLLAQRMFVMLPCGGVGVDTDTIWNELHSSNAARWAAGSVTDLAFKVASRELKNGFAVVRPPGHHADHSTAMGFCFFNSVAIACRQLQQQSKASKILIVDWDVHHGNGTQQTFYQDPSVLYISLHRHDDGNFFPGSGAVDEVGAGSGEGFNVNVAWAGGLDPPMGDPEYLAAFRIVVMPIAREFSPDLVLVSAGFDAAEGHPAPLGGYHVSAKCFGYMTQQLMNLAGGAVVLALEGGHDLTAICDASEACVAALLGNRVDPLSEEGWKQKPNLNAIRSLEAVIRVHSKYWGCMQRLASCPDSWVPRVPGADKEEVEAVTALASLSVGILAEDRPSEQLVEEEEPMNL
# Test: In vitro HDAC7 inhibition, fluorogenic substrate
# Type: biochemical
# Details: read-out: IC50 (μM) HDAC-7
# Protocol: In Vitro Inhibitory Activity of Histone Deacetylase: Human Isoforms HDAC1, 2, 3, 4, 5, 6, 7, 8, 9, 10 and 11 and HeLa Cell Line Nuclear Extract (IC50 Data)
# All HDAC assays were performed using acetylated AMC-labeled peptide substrate: • Substrate for isoforms HDAC1, 2, 3, 6, 10, 11 and HeLa nuclear extract assays: Acetylated fluorogenic peptide from p53 residues 379-382 (RHKKAc). • Substrate for isoforms HDAC 4, 5, 7, 9: Fluorogenic Boc-L-Lys(ε-trifluoroacetyl)-AMC. • Substrate for HDAC8 assays: Acetylated fluorogenic peptide from p53 residues 379-382 (RHKAcKAc).
# 50 μM of substrate peptide (see ‘substrate peptides’ section above) and an optimal concentration of the corresponding enzyme (see ‘enzymes’ section above) in the assay buffer and 1% final concentration of DMSO were incubated in the presence of gradient concentrations of inhibitors (10-dose IC50 mode with 3-fold serial dilution) at 30° C. for 2 h. The reactions were carried out in a 96-well microplate for fluorometry in a 50 μl reaction volume. After the deacetylation reaction, Fluor-de-Lys-Developer (BioMol Cat. # KI-105) was added to each well to digest the deacetylated substrate, thus producing the fluorescent signal. The reaction was allowed to develop for 45 minutes at 30° C. with 5% CO2; then the fluorescent signal was measured with an excitation wavelength at 360 nm and an emission wavelength at 460 nm in a microplate-reading fluorometer (GeminiXS; Molecular Devices, Sunnyvale, Calif.). A curve of Deacetylated Standard (Biomol, Cat. # KI-142; made from 100 μM with 1:2 dilution and 10-doses, 6 μl) allowed the conversion of fluorescent signal into micromoles of deacetylated product. All experiments were performed in triplicate. IC50 was calculated by fitting the experimental data to a dose-response curve. DMSO was used as negative control; Trichostatin A (Biomol Cat. # GR-309) was used as positive control inhibitor.
row,SMILES,IC50
1,"O=C(CCCCCNc1c2c(nc3ccccc13)CCCC2)NO [Example 1, N-hydroxy-6-[(1,2,3,4-tetrahydroacridin-9-yl)amino]hexanamide]",4.55 µM
2,"O=C(CCCCCCNc1c2c(nc3ccccc13)CCCC2)NO [Example 2, N-hydroxy-7-[(1,2,3,4-tetrahydroacridin-9-yl)amino]heptanamide]",0.77 µM
3,"O=C(CCCCCCNc1c2c(nc3ccccc13)CCC2)NO [Example 3, 7-[(2,3-dihydro-1H-cyclopenta[b]quinolin-9-yl)amino]-N-hydroxyheptanamide]",> 5 µM
4,"O=C(CCCCCCNc1c2c(nc3ccccc13)CCCCC2)NO [Example 4, N-hydroxy-7-[(7,8,9,10-tetrahydro-6H-cyclohepta[b]quinolin-11-yl)amino]heptanamide]",> 5 µM
5,"COc1cccc2c(NCCCCCCC(=O)NO)c3c(nc12)CCCC3 [Example 5, N-hydroxy-7-[(5-methoxy-1,2,3,4-tetrahydroacridin-9-yl)amino]heptanamide]",> 5 µM
6,"O=C(CCCCCCNc1c2c(nc3ncccc13)CCCC2)NO [Example 7, N-hydroxy-7-[(6,7,8,9-tetrahydrobenzo[b][1,8]naphthyridin-5-yl)amino]heptanamide]",> 5 µM
7,"O=C(CCCCCCNc1c2c(nc3cnccc13)CCCC2)NO [Example 8, N-hydroxy-7-[(6,7,8,9-tetrahydrobenzo[b][1,7]naphthyridin-5-yl)amino]heptanamide]",> 5 µM
8,"O=C(CCCCCNC(=O)c1c2c(nc3ccccc13)CCCC2)NO [Example 10, N-[6-(hydroxyamino)-6-oxohexyl]-1,2,3,4-tetrahydroacridine-9-carboxamide]",> 5 µM
9,"O=C(CCCCCCNC(=O)c1c2c(nc3ccccc13)CCCC2)NO [Example 11, N-[7-(hydroxyamino)-7-oxoheptyl]-1,2,3,4-tetrahydroacridine-9-carboxamide]",> 5 µM
